Biological target: T1, V₂ receptor (Rattus norvegicus, UniProt Q00788)
T1 construct: Using rat kidney plasma membrane preparations; from tissue; host or cells: rat kidney plasma membranes
Assay: V₂ receptor binding assay ([³H]-Arg-vasopressin, rat kidney plasma membrane preparations)
Conditions: 4°C for 3 hours
Description: Using rat kidney plasma membrane preparations prepared according to O. Hechter's method [cf: J. Bio. […] After incubation, the mixture is filtered using the glass filter (GF/F) so as to separate the membrane preparation combined with vasopressin and then washed twice with the buffer (5 ml). This glass filter is taken out and mixed with liquid scintillation cocktail. The amount of [³H]-vasopressin combined with the membrane is measured by liquid scintillation counter and the rate of the inhibitory effect of the test compound is estimated according to the following equation. Rate of the inhibitory effect (%) = 100 -(C1 - B1)/(C0 - B1)X 100 [formula] C¹: The amount of [³H]-vasopressin combined with the membrane in the presence of the test compound (in prescribed amount). C⁰: The amount of [³H)-vasopressin combined with the membrane in the absence of the test compound. B¹: The amount of [³H]-vasopressin combined with the membrane in the presence of the excess amount of vasopressin (10⁻⁶ M).
The results are expressed as IC₅₀ values, which is the concentration of the test compound required to achieve the inhibitory effect in the rate of 50 %.

T1 sequence (Q00788 whole entry): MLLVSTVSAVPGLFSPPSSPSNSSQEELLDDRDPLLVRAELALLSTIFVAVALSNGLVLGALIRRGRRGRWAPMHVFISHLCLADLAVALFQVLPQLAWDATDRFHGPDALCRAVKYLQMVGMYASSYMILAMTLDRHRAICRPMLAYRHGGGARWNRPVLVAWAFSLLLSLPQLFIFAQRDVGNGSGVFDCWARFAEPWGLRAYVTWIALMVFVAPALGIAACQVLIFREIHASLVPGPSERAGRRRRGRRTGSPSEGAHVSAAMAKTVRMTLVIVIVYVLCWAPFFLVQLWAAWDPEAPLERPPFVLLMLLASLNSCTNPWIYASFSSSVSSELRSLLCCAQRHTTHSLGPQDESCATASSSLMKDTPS

IC50	Structure (SMILES)
980 nM	O=C(Nc1ccc(C(=O)N2CCCc3ccccc32)cc1)c1ccccc1 [Test compound 1, 1-(4-Benzoylaminobenzoyl)-1,2,3,4-tetrahydroquinoline]
200 nM	O=C(Nc1ccc(C(=O)N2CCCc3ccccc32)cc1)c1cccc(Cl)c1 [compound 2]
400 nM	COc1cccc(C(=O)Nc2ccc(C(=O)N3CCCc4ccccc43)cc2)c1 [compound 3]
580 nM	N#Cc1cccc(C(=O)Nc2ccc(C(=O)N3CCCc4ccccc43)cc2)c1 [compound 4]
1200 nM	Nc1cccc(C(=O)Nc2ccc(C(=O)N3CCCc4ccccc43)cc2)c1 [compound 5]
200 nM	Cc1ccccc1C(=O)Nc1ccc(C(=O)N2CCCc3ccccc32)cc1 [compound 7]
320 nM	O=C(Nc1ccc(C(=O)N2CCCc3ccccc32)cc1)c1ccccc1C(F)(F)F [compound 8]
530 nM	O=C(Nc1ccc(C(=O)N2CCCc3ccccc32)cc1)c1ccccc1[N+](=O)[O-] [compound 9]
82 nM	O=C(Nc1ccc(C(=O)N2CCCc3ccccc32)cc1)c1cc(Cl)cc(Cl)c1 [compound 10]
1050 nM	CC(C)(C)CC(=O)Nc1ccc(C(=O)N2CCCc3ccccc32)cc1 [compound 11]
1970 nM	O=C(CC1CCCCC1)Nc1ccc(C(=O)N2CCCc3ccccc32)cc1 [compound 12]
1020 nM	O=C(Cc1ccccc1)Nc1ccc(C(=O)N2CCCc3ccccc32)cc1 [compound 13]
230 nM	O=C(Nc1ccc(C(=O)N2CCCc3ccccc32)cc1)C1CCCCC1 [compound 14]
130 nM	O=C(Nc1ccc(C(=O)N2CCCc3ccccc32)cc1)C1CCCCCC1 [compound 15]
170 nM	O=C(Nc1ccc(C(=O)N2CCCc3ccccc32)cc1)C1CCCCCCC1 [compound 16]
1000 nM	O=C(Nc1ccc(C(=O)N2CCCc3ccccc32)cc1)c1cccc2ccccc12 [compound 18]
1400 nM	O=C(Nc1ccccc1C(=O)N1CCCc2ccccc21)c1ccc2ccccc2c1 [compound 20]
1000 nM	COc1ccc(NC(=O)c2ccc(C(=O)N3CCCc4ccccc43)cc2)cc1 [compound 21]
330 nM	Cc1ccccc1NC(=O)c1ccc(C(=O)N2CCCc3ccccc32)cc1 [compound 22]
1070 nM	O=C(Nc1cccc(Cl)c1)c1ccc(C(=O)N2CCCc3ccccc32)cc1 [compound 23]
1090 nM	O=C(Nc1cc(Cl)cc(Cl)c1)c1ccc(C(=O)N2CCCc3ccccc32)cc1 [compound 24]
1670 nM	O=C(NC1CCCCC1)c1ccc(C(=O)N2CCCc3ccccc32)cc1 [compound 25]
98 nM	N#Cc1cccc(C(=O)Nc2ccc(C(=O)N3CCCCc4ccccc43)cc2)c1 [compound 31]
49 nM	O=C(Nc1ccc(C(=O)N2CCCCCc3ccccc32)cc1)C1CCCCC1 [compound 34]
200 nM	O=C(Nc1ccc(C(=O)N2CCCCCc3ccccc32)cc1)c1ccccc1 [compound 35]
160 nM	COc1cccc(C(=O)Nc2ccc(C(=O)N3CCCCCc4ccccc43)cc2)c1 [compound 37]

IC50	Structure (SMILES)
29 nM	Cc1cccc(C(=O)Nc2ccc(C(=O)N3CCCCCc4ccccc43)cc2)c1C [compound 38]
71 nM	O=C(Nc1ccc(C(=O)N2CCCCCc3ccccc32)cc1)c1cc(Cl)cc(Cl)c1 [compound 39]
200 nM	Cc1cccc(C(=O)Nc2ccc(C(=O)N3CCOCc4ccccc43)cc2)c1 [compound 41]
63 nM	Cc1cccc(C(=O)Nc2ccc(C(=O)N3CCOCc4ccccc43)cc2)c1C [compound 42]
170 nM	O=C(Nc1ccc(C(=O)N2CCOCc3ccccc32)cc1)c1cc(Cl)cc(Cl)c1 [compound 43]
50 nM	CC1Cc2ccccc2N(C(=O)c2ccc(NC(=O)C3CCCCC3)cc2)C1 (centres unmarked) [compound 44]
190 nM	CC1Cc2ccccc2N(C(=O)c2ccc(NC(=O)c3ccccc3)cc2)C1 (centres unmarked) [compound 45]
200 nM	COc1cccc(C(=O)Nc2ccc(C(=O)N3CC(C)Cc4ccccc43)cc2)c1 (centres unmarked) [compound 47]
21 nM	Cc1cccc(C(=O)Nc2ccc(C(=O)N3CC(C)Cc4ccccc43)cc2)c1C (centres unmarked) [compound 48]
63 nM	CC1Cc2ccccc2N(C(=O)c2ccc(NC(=O)c3cc(Cl)cc(Cl)c3)cc2)C1 (centres unmarked) [compound 49]
1300 nM	CN1CCN(C(=O)c2ccc(NC(=O)C3CCCCC3)cc2)c2ccccc21 [compound 50]
400 nM	Cc1ccccc1C(=O)Nc1ccc(C(=O)N2CCN(C)c3ccccc32)cc1 [compound 51]
320 nM	Cc1cccc(C(=O)Nc2ccc(C(=O)N3CCN(C)c4ccccc43)cc2)c1C [compound 52]
1600 nM	CN1CCN(C(=O)c2ccc(NC(=O)c3cc(Cl)cc(Cl)c3)cc2)c2ccccc21 [compound 53]
110 nM	CC1CCc2ccccc2N1C(=O)c1ccc(NC(=O)c2cc(Cl)cc(Cl)c2)cc1 (centres unmarked) [compound 54]
91 nM	CC1CCN(C(=O)c2ccc(NC(=O)c3cc(Cl)cc(Cl)c3)cc2)c2ccccc21 (centres unmarked) [compound 55]
530 nM	CN1CCN(C(=O)c2ccc(NC(=O)C3CCCCC3)cc2)c2ccccc2C1 [compound 79]
150 nM	Cc1cccc(C(=O)Nc2ccc(C(=O)N3CCN(C)Cc4ccccc43)cc2)c1C [compound 81]
730 nM	COc1cccc(C(=O)Nc2ccc(C(=O)N3CCN(C)Cc4ccccc43)cc2)c1 [compound 83]
580 nM	CCCN1CCN(C(=O)c2ccc(NC(=O)c3cccc(C)c3C)cc2)c2ccccc2C1 [compound 86]
46 nM	CN1CCCN(C(=O)c2ccc(NC(=O)c3ccccc3)cc2)c2ccccc21 [compound 87]
35 nM	CN1CCCN(C(=O)c2ccc(NC(=O)c3cc(Cl)cc(Cl)c3)cc2)c2ccccc21 [compound 89]
5 nM	Cc1cccc(C(=O)Nc2ccc(C(=O)N3CCCN(C)c4ccccc43)cc2)c1C [compound 91]
410 nM	COc1cc(C(=O)N2CCN(C)Cc3ccccc32)ccc1NC(=O)c1cc(Cl)cc(Cl)c1 [compound 92]
520 nM	Cc1cccc(C(=O)Nc2ccc(C(=O)N3CC(N4CCCC4)Cc4ccccc43)cc2)c1C (centres unmarked) [compound 93]
95 nM	Cc1ccc2c(c1)CCCN2C(=O)c1ccc(NC(=O)c2cc(Cl)cc(Cl)c2)cc1 [compound 94]

IC50	Structure (SMILES)
89 nM	COc1ccc2c(c1)CCCN2C(=O)c1ccc(NC(=O)c2cc(Cl)cc(Cl)c2)cc1 [compound 95]
39 nM	O=C(Nc1ccc(C(=O)N2CC(CO)Cc3ccccc32)cc1)c1cc(Cl)cc(Cl)c1 (centres unmarked) [compound 96]
24 nM	CNC1CCN(C(=O)c2ccc(NC(=O)c3cc(Cl)cc(Cl)c3)cc2)c2ccccc21 (centres unmarked) [compound 97]
450 nM	NC1Cc2ccccc2N(C(=O)c2ccc(NC(=O)c3cc(Cl)cc(Cl)c3)cc2)C1 (centres unmarked) [compound 98]
1600 nM	CC(=O)NC1Cc2ccccc2N(C(=O)c2ccc(NC(=O)c3cc(Cl)cc(Cl)c3)cc2)C1 (centres unmarked) [compound 99]
11 nM	CN(C)C1CCN(C(=O)c2ccc(NC(=O)c3cc(Cl)cc(Cl)c3)cc2)c2ccccc21 (centres unmarked) [compound 100]
540 nM	O=C(CN1CCCCC1)Nc1ccc(C(=O)N2CCCCc3ccccc32)cc1 [compound 103]
370 nM	O=C(COc1ccccc1)Nc1ccc(C(=O)N2CCCCc3ccccc32)cc1 [compound 104]
440 nM	CC(C)(COc1ccccc1)NCC(=O)Nc1ccc(C(=O)N2CCCCc3ccccc32)cc1 [compound 106]
32 nM	Cc1cccc(OCC(=O)Nc2ccc(C(=O)N3CCCCc4ccccc43)cc2)c1 [compound 107]
120 nM	COc1cccc(NCC(=O)Nc2ccc(C(=O)N3CCCCc4ccccc43)cc2)c1 [compound 108]
44 nM	Cc1ccc(NCC(=O)Nc2ccc(C(=O)N3CCCCc4ccccc43)cc2)cc1 [compound 110]
87 nM	COc1cccc(OCC(=O)Nc2ccc(C(=O)N3CCCCc4ccccc43)cc2)c1 [compound 111]
280 nM	Cc1ccc(NCC(=O)Nc2ccc(C(=O)N3CCCCc4ccccc43)cc2)c(C)c1 [compound 113]
100 nM	O=C(Nc1ccc(C(=O)N2CCCC(=O)c3ccccc32)cc1)c1cc(Cl)cc(Cl)c1 [compound 139]
24 nM	CN1CCN(C(=O)c2ccc(NC(=O)c3cc(Cl)cc(Cl)c3)cc2Cl)c2ccccc2C1 [compound 140]
10 nM	CNC1CCCN(C(=O)c2ccc(NC(=O)c3cc(Cl)cc(Cl)c3)cc2)c2ccccc21 (centres unmarked) [compound 141]
8 nM	CC(=O)N(C)C1CCCN(C(=O)c2ccc(NC(=O)c3cc(Cl)cc(Cl)c3)cc2)c2ccccc21 (centres unmarked) [compound 142]
20 nM	COc1cc(C(=O)N2CCC(N(C)C)c3ccccc32)ccc1NC(=O)c1cccc(C)c1C (centres unmarked) [compound 144]
60 nM	Cc1ccccc1C(=O)Nc1ccc(C(=O)N2CCC(CN(C)C)c3ccccc32)cc1 (centres unmarked) [compound 145]
71 nM	CCCNC1CCCN(C(=O)c2ccc(NC(=O)c3ccc(Cl)cc3Cl)cc2)c2ccccc21 (centres unmarked) [compound 169]
250 nM	Cc1ccccc1C(=O)Nc1ccc(C(=O)N2CCCC(N(C)C)c3ccccc32)cc1OCc1ccccc1 (centres unmarked) [compound 170]
870 nM	Cc1ccccc1C(=O)Nc1ccc(C(=O)N2CCC[S+]([O-])c3ccccc32)cc1 (centres unmarked) [compound 171]
38 nM	CN(C)C1CCCN(C(=O)c2ccc(NC(=O)c3ccccc3C(C)(C)C)cc2Cl)c2ccccc21 (centres unmarked) [compound 175]
4 nM	CNC1CCCN(C(=O)c2ccc(NC(=O)c3ccccc3Cl)cc2Cl)c2ccccc21 (centres unmarked) [compound 176]

From patent EP0450097B1, “BENZOHETEROCYCLIC COMPOUNDS” (OTSUKA PHARMACEUTICAL CO., LTD., priority 1989, dated 1991)
